Measured values as given in US20220089575A1, “FARNESOID X RECEPTOR AGONISTS AND USES THEREOF” (Metacrine, Inc., priority 2017, published 2022).

molecular target: T1, hFXR (Homo sapiens, UniProt Q96RI1); experiment: In Vitro FXR Assay (TK): TK-ECRE-luc reporter in transfected CV-1 cells; format: cell-based; settings: 18 hrs, luminescence, maximum efficacy of <25% of the Fexarmine control classified as '+'
T1 construct: expressed in transfected cells; host or cells: CV-1 cells
T1 sequence (Q96RI1 1-486): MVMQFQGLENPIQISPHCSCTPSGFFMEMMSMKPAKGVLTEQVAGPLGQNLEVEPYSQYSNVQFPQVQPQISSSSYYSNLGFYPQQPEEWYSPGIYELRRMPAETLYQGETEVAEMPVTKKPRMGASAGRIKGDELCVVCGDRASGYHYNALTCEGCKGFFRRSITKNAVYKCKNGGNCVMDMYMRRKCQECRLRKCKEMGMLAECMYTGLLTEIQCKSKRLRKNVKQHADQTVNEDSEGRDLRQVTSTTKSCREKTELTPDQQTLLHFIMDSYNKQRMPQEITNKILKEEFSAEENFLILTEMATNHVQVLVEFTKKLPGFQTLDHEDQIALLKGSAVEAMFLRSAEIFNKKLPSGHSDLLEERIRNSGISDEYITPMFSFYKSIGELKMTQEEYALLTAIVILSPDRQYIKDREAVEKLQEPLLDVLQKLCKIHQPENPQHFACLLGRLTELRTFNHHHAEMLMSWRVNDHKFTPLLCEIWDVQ
T1 sequence (P19793 1-462 partner): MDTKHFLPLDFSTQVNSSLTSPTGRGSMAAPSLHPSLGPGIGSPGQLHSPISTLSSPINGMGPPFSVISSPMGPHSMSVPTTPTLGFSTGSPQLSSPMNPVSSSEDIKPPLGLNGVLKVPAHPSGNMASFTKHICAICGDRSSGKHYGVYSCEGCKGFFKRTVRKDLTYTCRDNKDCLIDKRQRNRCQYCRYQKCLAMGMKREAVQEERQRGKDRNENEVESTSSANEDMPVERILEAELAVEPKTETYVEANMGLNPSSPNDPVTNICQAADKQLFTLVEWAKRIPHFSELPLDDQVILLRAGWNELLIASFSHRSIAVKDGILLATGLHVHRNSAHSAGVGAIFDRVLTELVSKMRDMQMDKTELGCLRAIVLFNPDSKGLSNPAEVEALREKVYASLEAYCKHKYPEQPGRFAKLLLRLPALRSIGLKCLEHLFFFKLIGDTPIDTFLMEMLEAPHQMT
In short: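 Luciferase read-out after 18 h compound exposure of CV-1 cells carrying transfected hFXR plus hRXR expression plasmids, TK-ECRE-luc reporter and pCMX-YFP. Cells cultured in charcoal-stripped FBS before transfection; compounds serially diluted in DMSO.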

| EC50 | SMILES |
| --- | --- |
| ≤ 250 nM | COc1ccc(C23CCC(CN(c4cc(-c5cnn(C6CC6)c5)ccn4)C(=O)[C@H]4CC[C@H](CC(=O)O)CC4)(CC2)CC3)cc1C [Compound 20.08, trans-2-(4-((4-(1-Cyclopropyl-1H-pyrazol-4-yl)pyridin-2-yl)((4-(4-methoxy-3-methylphenyl)bicyclo [2.2.2]octan-1-yl)methyl)carbamoyl)cyclohexyl)acetic acid] |
| ≤ 250 nM | COc1ccc([C@H]2CC[C@H](CN(c3cc(-c4coc(C5CC5)n4)ccn3)C(=O)[C@H]3CC[C@H](OC(=O)NC(C)C(C)O)CC3)CC2)nc1C (stereo partly drawn) [Compound 6.73, trans-4-((4-(2-Cyclopropyloxazol-4-yl)pyridin-2-yl)((trans-4-(5-methoxy-6-methylpyridin-2-yl)cyclohexyl)methyl)carbamoyl)cyclohexyl (3-hydroxybutan-2-yl)carbamate] |
| ≤ 250 nM | COc1ccc([C@H]2CC[C@H](CN(c3cccc(-c4cnc(C5CC5)s4)c3)C(=O)[C@H]3CC[C@H](NC(=O)CC(C)C)CC3)CC2)cc1C [Compound 25.18, trans-N-(3-(2-Cyclopropylthiazol-5-yl)phenyl)-N-((trans-4-(4-methoxy-3-methylphenyl)cyclohexyl)methyl)-4-(3-methylbutanamido) cyclohexanecarboxamide] |
| ≤ 250 nM | COCCN(C)C(=O)O[C@H]1CC[C@H](C(=O)N(C[C@H]2CC[C@H](c3ccc(OC)c(C)n3)CC2)c2cc(-c3coc(C4CC4)n3)ccn2)CC1 [Compound 6.63] |
| ≤ 250 nM | COc1ccc([C@H]2CC[C@H](CN(c3cccc(-c4cnc(C5CC5)s4)c3)C(=O)[C@H]3CC[C@H](NC(=O)CCS(C)(=O)=O)CC3)CC2)cc1C [Compound 31.14, trans-N-(3-(2-Cyclopropylthiazol-5-yl)phenyl)-N-((trans-4-(4-methoxy-3-methylphenyl)cyclohexyl)methyl)-4-(3-(methylsulfonyl)propanamido) cyclohexanecarboxamide] |
| ≤ 250 nM | COc1ncc([C@H]2CC[C@H](CN(c3cccc(-c4cnn(C5CC5)c4)c3)C(=O)[C@H]3CC[C@H](OC(=O)NCCO)CC3)CC2)cc1Cl [Compound 6.23, trans-4-(((trans-4-(5-Chloro-6-methoxypyridin-3-yl)cyclohexyl)methyl) (3-(1-cyclopropyl-1H-pyrazol-4-yl)phenyl)carbamoyl)cyclohexyl (2-hydroxyethyl)carbamate] |
| ≤ 250 nM | COc1ccc([C@H]2CC[C@H](CN(c3cc(-c4cnn(C(C)C)c4)ccn3)C(=O)[C@H]3CC[C@H](OC(=O)N4CC(O)C4)CC3)CC2)nc1C#N [Compound 7.40, trans-4-(((trans-4-(6-Cyano-5-methoxypyridin-2-yl)cyclohexyl)methyl)(4-(1-isopropyl-1H-pyrazol-4-yl)pyridin-2-yl)carbamoyl) cyclohexyl 3-hydroxyazetidine-1-carboxylate] |
| ≤ 250 nM | COc1ccc([C@H]2CC[C@H](CN(c3cccc(-c4cnc(C5CC5)s4)c3)C(=O)[C@H]3CC[C@H](NC(=O)C4COC4)CC3)CC2)cc1C [Compound 27.02, N-(trans-4-((3-(2-Cyclopropylthiazol-5-yl)phenyl)((trans-4-(4-methoxy-3-methylphenyl)cyclohexyl)methyl)carbamoyl)cyclohexyl)oxetane-3-carboxamide] |
| ≤ 250 nM | CNC(=O)O[C@H]1CC[C@H](C(=O)N(C[C@H]2CC[C@H](c3ccc(OC)c(C)c3)CC2)c2cc(-c3cnn(C(C)C)c3)ccn2)CC1 [Compound 5.12, trans-4-((4-(1-Isopropyl-1H-pyrazol-4-yl)pyridin-2-yl)((trans-4-(4-methoxy-3-methylphenyl)cyclohexyl)methyl)carbamoyl)cyclohexyl methylcarbamate] |
| ≤ 250 nM | COc1ccc([C@H]2CC[C@H](CN(c3cc(-c4coc(C5CC5)n4)ccn3)C(=O)[C@H]3CC[C@H](OC(=O)NC(C)CO)CC3)CC2)nc1C (stereo partly drawn) [Compound 6.71, trans-4-((4-(2-Cyclopropyloxazol-4-yl)pyridin-2-yl)((trans-4-(5-methoxy-6-methylpyridin-2-yl)cyclohexyl)methyl)carbamoyl)cyclohexyl (1-hydroxypropan-2-yl)carbamate] |
| ≤ 250 nM | CCC1CN(C(=O)O[C@H]2CC[C@H](C(=O)N(C[C@H]3CC[C@H](c4ccc(OC)c(C#N)c4)CC3)c3cc(-c4cnn(C(C)C)c4)ccn3)CC2)C1 [Compound 7.47, trans-4-(((trans-4-(3-Cyano-4-methoxyphenyl)cyclohexyl)methyl)(4-(1-isopropyl-1H-pyrazol-4-yl)pyridin-2-yl)carbamoyl)cyclohexyl 3-ethylazetidine-1-carboxylate] |
| ≤ 250 nM | COc1ccc([C@H]2CC[C@H](CN(c3cc(-c4coc(C(C)C)n4)ccn3)C(=O)[C@H]3CC[C@H](OC(=O)NCC(C)(C)O)CC3)CC2)nc1C [Compound 6.91, trans-4-((4-(2-Isopropyloxazol-4-yl)pyridin-2-yl)((trans-4-(5-methoxy-6-methylpyridin-2-yl)cyclohexyl)methyl)carbamoyl)cyclohexyl (2-hydroxy-2-methylpropyl)carbamate] |
| 250 to 1000 nM | COc1ccc([C@H]2CC[C@H](CN(c3cc(-c4coc(C5CC5)n4)ccn3)C(=O)[C@H]3CC[C@@H](OC(=O)N4CC(O)C4)CC3)CC2)nc1C [Compound 7.96, 4-(4-(2-Cyclopropyloxazol-4-y)pyridine-2-yl)((4-(5-methoxy-6-methylpyridin-2-yl)cyclohexyl)methyl)carbamoyl) cyclohexyl-cis-3-hydroxyazetidine-1-carboxylate] |

Second part, the molecule before the results:

| SMILES | EC50 |
| --- | --- |
| COc1ccc([C@H]2CC[C@H](CN(c3cc(-c4cnn(C5CC5)c4)ccn3)C(=O)[C@H]3CC[C@H](OC(=O)N4CC(O)C4)CC3)CC2)cc1C [Compound 4.27, trans-4-((4-(1-Cyclopropyl-1H-pyrazol-4-yl)pyridin-2-yl)((trans-4-(4-methoxy-3-methylphenyl)cyclohexyl)methyl)carbamoyl)cyclohexyl 3-hydroxyazetidine-1-carboxylate] | ≤ 250 nM |
| COc1ccc([C@H]2CC[C@H](CN(c3cccc(-c4cnn(C5CC5)c4)c3)C(=O)[C@H]3CC[C@H](OC(=O)[C@H]4CC[C@H](O)CC4)CC3)CC2)cc1C [Compound 10, trans-4-((3-(1-Cyclopropyl-1H-pyrazol-4-yl)phenyl)((trans-4-(4-methoxy-3-methylphenyl)cyclohexyl)methyl)carbamoyl)cyclohexyl trans-4-hydroxycyclohexanecarboxylate] | ≤ 250 nM |
| COc1ccc([C@H]2CC[C@H](CN(c3cccc(-c4cnn(C5CC5)c4)c3)C(=O)[C@H]3CC[C@H](OC(=O)N4CC(O)C4)CC3)CC2)nc1C [Compound 4.26, trans-4-((3-(1-Cyclopropyl-1H-pyrazol-4-yl)phenyl)((trans-4-(5-methoxy-6-methylpyridin-2-yl)cyclohexyl)methyl)carbamoyl)cyclohexyl 3-hydroxyazetidine-1-carboxylate] | ≤ 250 nM |
| CNC(=O)O[C@H]1CC[C@H](C(=O)N(C[C@H]2CC[C@H](c3ccc(OC)c(C)c3)CC2)c2cccc(-c3cc(C4CC4)ns3)c2)CC1 [Compound 2, trans-4-((3-(3-Cyclopropylisothiazol-5-yl)phenyl)((trans-4-(4-methoxy-3-methylphenyl)cyclohexyl)methyl)carbamoyl)cyclohexyl methylcarbamate] | ≤ 250 nM |
| CN(C)c1ccc(C23CCC(CN(c4cccc(-c5coc(C6CC6)n5)c4)C(=O)[C@H]4CC[C@H](OC(=O)NCCO)CC4)(CC2)CC3)cn1 [Compound 4.23, 4-((3-(2-Cyclopropyloxazol-4-yl)phenyl)((4-(6-(dimethylamino)pyridin-3-yl)bicyclo[2.2.2]octan-1-yl)methyl)carbamoyl)cyclohexyl trans-(2-hydroxyethyl)carbamate] | ≤ 250 nM |
| CCCOC(=O)[C@H]1CC[C@H](C(=O)N(C[C@H]2CC[C@H](c3ccc(OC)c(C)c3)CC2)c2cccc(-c3cnn(C4CC4)c3)c2)CC1 [Compound 22, trans-Propyl 4-((3-(1-cyclopropyl-1H-pyrazol-4-yl)phenyl)((trans-4-(4-methoxy-3-methylphenyl)cyclohexyl)methyl)carbamoyl)cyclohexanecarboxylate] | ≤ 250 nM |
| COC(=O)NCC(=O)N[C@H]1CC[C@H](C(=O)N(C[C@H]2CC[C@H](c3ccc(OC)c(C)c3)CC2)c2cccc(-c3cnn(C4CC4)c3)c2)CC1 [Compound 31, Methyl (2-((trans-4-((03-(1-cyclopropyl-1H-pyrazol-4-yl)phenyl)((trans-4-(4-methoxy-3-methylphenyl)cyclohexyl)methyl)carbamoyl)cyclohexyl)amino)-2-oxoethyl)carbamate] | ≤ 250 nM |
